# Experimental data from US12496329B2, “Methods of using and compositions including an incretin analog” (Eli Lilly and Company, priority 2021, dated 2025).
# Like-named read-outs stand apart in the source and are kept apart here.
# What was measured:
# [1] = Phase 2 study for obesity and NAFLD; format: in vivo, human; details: 16 week data; dose range 2-12 mg; steps of 1, 2, 3 or 4 mg QW SC
# From the text: Studies are designed to further evaluate the effectiveness and safety of the GGG tri-receptor agonist (SEQ ID NO:1) in a larger population of obese individuals or overweight individuals. The study is a randomized, investigator- and participant-blind, placebo-controlled study conducted in obese individuals or overweight individuals without diabetes (i.e., females or males aged 18-75 years, inclusive, with obesity prior to randomization and with a BMI of ≥30 kg/m^2 at screening or overweight prior to randomization and with a BMI of ≥27 kg/m^2 […] <30 kg/m^2 at screening with weight-related comorbidities but without T2DM).
# Dose escalation of the GGG tri-receptor agonist is assessed over 36 weeks in cohorts administered the GGG tri-receptor agonist, dulaglutide or placebo. A first cohort of 60 individuals is administered 2.0 mg of the GGG tri-receptor agonist for Weeks 1-4, 4.0 mg for the Weeks 5-8, 8.0 mg for Weeks 9-12, and then 12.0 mg for […]. […] An additional 125 individuals are assessed for NAFLD, which is characterized by ≥10% liver fat by magnetic resonance imaging proton density fat fraction (MRI-PDFF).
# Body weight is assessed at pre-dose and at Week 24 and at Week 48 for % change in body weight. Mean change in waist circumference (cm) is measured at Week 24 or Week 48. […]
# [2] = SAD study: plasma pharmacokinetics after a single SC dose; format: in vivo; details: both sexes, human
# From the text: (§1) Studies are designed to evaluate the safety, tolerability, pharmacodynamics (PD) and pharmacokinetics (PK) of the GGG tri-receptor agonist (SEQ ID NO:1) in healthy individuals. The SAD study is a randomized, investigator- and participant-blind, placebo-controlled, single-dose, single-site, dose-escalation study conducted in healthy individuals (e.g., overtly healthy females or males aged 21-65 years, inclusive, with a BMI 19-40 kg/m^2 at screening).
# (§2) Six dose levels of the GGG tri-receptor agonist-0.1, 0.3, 1.0, 3.0, 4.5 and 6.0 mg—are explored in the SAD study, as well as placebo (i.e., 0.0 mg). A dose escalation of the GGG tri-receptor agonist is assessed in cohorts of healthy individuals (e.g., 6 individuals receiving the GGG tri-receptor agonist and 2 individuals receiving placebo per cohort). Staggered dosing is performed for each cohort, in which a new higher dose of the GGG tri-receptor agonist is administered. All injections are administered into the SC tissue of an abdominal wall, in a right or left lower quadrant.
# Blood samples are collected pre-dose and at 4 hours (hr), 10 hr, 14 hr, 24 hr (Day 1), 48 hr (Day 2), 72 hr (Day 3), 96 hr (Day 4), 120 hr ([…]), 168 hr (Day 7), 336 hr (Day 14), 672 hr (Day 28) and 1008 hr (Day 42) post-dose to determine plasma concentration of the GGG tri-receptor agonist. Plasma concentrations are used to compute PK parameters using standard non-compartmental methods in a validated software program (Phoenix WinNonlin Version 8.1).
# Bioanalytical methods: plasma samples are analyzed at Q2 Solutions (Ithaca, NY). The samples are analyzed for the GGG tri-receptor agonist using a validated liquid chromatography high resolution mass spectrometry method. The lower limit of quantification is 1.00 ng/mL and the upper limit of quantification is 500.00 ng/ml. Samples above a limit of quantification are diluted and reanalyzed to yield results within the calibrated range. The intra-assay accuracy (% relative error) during validation ranges from −6.3% to 15.7%. The intra-assay precision (% relative standard deviation) during validation is ≤14.7%. The GGG tri-receptor agonist is stable for up to 96 days when stored at about-20° C. and about −70° C.
# Actual sampling times are used in the calculation of all PK parameters and concentration versus time profiles.
# Concentration values below the quantifiable lower limit of the assay are excluded from the calculation of PK parameters, except for those prior to the first measurable concentration, which are set to a value of 0.
# A concentration average is plotted for a given sample if two thirds of the individual data at the time point have quantifiable measurements. Concentrations at sampling times exceeding ±10% of the scheduled time ware excluded from the average concentration profiles.
# [3] = SAD study: safety and tolerability; format: in vivo, human
# From the text: as §1, §2
# Safety analyses: Safety parameters assessed during the study included: AEs (with special interest to GI AEs such as nausea, vomiting, and diarrhea), laboratory parameters (with special attention to hepatic and pancreatic biomarkers), physical examinations/medical assessments, vital signs and ECGs, BW, injection site reactions, hypersensitivity reactions, and glucose monitoring (with special attention to hypoglycemia).
compound,measurement,setting,value
"CC[C@H](C)[C@H](NC(=O)[C@H](Cc1ccccc1)NC(=O)[C@H](C)NC(=O)C(C)(C)NC(=O)[C@H](CCC(N)=O)NC(=O)[C@H](C)NC(=O)[C@H](CCCCNC(=O)COCCOCCNC(=O)CC[C@H](NC(=O)CCCCCCCCCCCCCCCCCCC(=O)O)C(=O)O)NC(=O)[C@H](CCCCN)NC(=O)[C@H](CC(=O)O)NC(=O)[C@H](CC(C)C)NC(=O)[C@](C)(CC(C)C)NC(=O)[C@@H](NC(=O)[C@H](CO)NC(=O)[C@H](Cc1ccc(O)cc1)NC(=O)[C@H](CC(=O)O)NC(=O)[C@H](CO)NC(=O)[C@@H](NC(=O)[C@H](Cc1ccccc1)NC(=O)[C@@H](NC(=O)CNC(=O)[C@H](CCC(N)=O)NC(=O)C(C)(C)NC(=O)[C@@H](N)Cc1ccc(O)cc1)[C@@H](C)O)[C@@H](C)O)[C@@H](C)CC)C(=O)N[C@@H](CCC(=O)O)C(=O)N[C@@H](Cc1ccc(O)cc1)C(=O)N[C@@H](CC(C)C)C(=O)N[C@@H](CC(C)C)C(=O)N[C@@H](CCC(=O)O)C(=O)NCC(=O)NCC(=O)N1CCC[C@H]1C(=O)N[C@@H](CO)C(=O)N[C@@H](CO)C(=O)NCC(=O)N[C@@H](C)C(=O)N1CCC[C@H]1C(=O)N1CCC[C@H]1C(=O)N1CCC[C@H]1C(=O)N[C@@H](CO)C(N)=O [GGG tri-receptor agonist, Y-Aib-QGTFTSDYSI-αMeL-LDKK((2-[2-(2-amino-ethoxy)-ethoxy]-acetyl)-(γGlu)-CO-(CH2)18-CO2H)AQ-Aib-AFIEYLLEGGPSSGAPPPS-NH2]",tolerability profile of dosing regimens,[1],acceptable tolerability profiles
same,AUC(0-inf),[2]; 0.1 mg single SC dose,3750 ng·h/mL
same,CL/F,[2]; 0.1 mg single SC dose,0.445 mL/min
same,Cmax,[2]; 0.1 mg single SC dose,11 ng/mL
same,Tmax,[2]; 0.1 mg single SC dose,72 h
same,AUC(0-inf),[2]; 0.3 mg single SC dose,10300 ng·h/mL
same,CL/F,[2]; 0.3 mg single SC dose,0.485 mL/min
same,Cmax,[2]; 0.3 mg single SC dose,44.8 ng/mL
same,Tmax,[2]; 0.3 mg single SC dose,72.2 h
same,AUC(0-inf),[2]; 1.0 mg single SC dose,28300 ng·h/mL
same,CL/F,[2]; 1.0 mg single SC dose,0.59 mL/min
same,Cmax,[2]; 1.0 mg single SC dose,110 ng/mL
same,Tmax,[2]; 1.0 mg single SC dose,48 h
same,AUC(0-inf),[2]; 3.0 mg single SC dose,69100 ng·h/mL
same,CL/F,[2]; 3.0 mg single SC dose,0.723 mL/min
same,Cmax,[2]; 3.0 mg single SC dose,251 ng/mL
same,Tmax,[2]; 3.0 mg single SC dose,14 h
same,AUC(0-inf),[2]; 4.5 mg single SC dose,130000 ng·h/mL
same,CL/F,[2]; 4.5 mg single SC dose,0.577 mL/min
same,Cmax,[2]; 4.5 mg single SC dose,589 ng/mL
same,Tmax,[2]; 4.5 mg single SC dose,12 h
same,AUC(0-inf),[2]; 6.0 mg single SC dose,150000 ng·h/mL
same,CL/F,[2]; 6.0 mg single SC dose,0.668 mL/min
same,Cmax,[2]; 6.0 mg single SC dose,635 ng/mL
same,Tmax,[2]; 6.0 mg single SC dose,24 h
same,half-life,"[2]; sc, 0.1 mg, 0.1 mg single SC dose, read-out: t½ (converted)",165 h
same,half-life,"[2]; sc, 0.3 mg, 0.3 mg single SC dose, read-out: t½ (converted)",139 h
same,half-life,"[2]; sc, 1 mg, 1.0 mg single SC dose, read-out: t½ (converted)",134 h
same,half-life,"[2]; sc, 3 mg, 3.0 mg single SC dose, read-out: t½ (converted)",134 h
same,half-life,"[2]; sc, 4.5 mg, 4.5 mg single SC dose, read-out: t½ (converted)",163 h
same,half-life,"[2]; sc, 6 mg, 6.0 mg single SC dose, read-out: t½ (converted)",149 h
same,half-life,"[2]; subcutaneous, single dose, read-out: mean terminal t½",120 to 168 h
same,"incidence of GI AEs (emesis, nausea)","[3]; Phase 1 dosing study, 6.0 mg or higher doses",higher-than-expected incidence of GI AEs
same,individuals reporting TEAEs,[3]; single SC dose,97.1%
same,injection-site reactions,[3]; single SC dose,No injection-site reactions
same,individuals reporting TEAEs related to study treatment,"[3]; single SC dose, 20 individuals",57.1%
same,hypoglycemic episodes,"[3]; single SC dose, all asymptomatic",low across all groups
same,severity of AEs,"[3]; single SC dose, dose-dependent",mild to moderate in severity
same,pulse rate,"[3]; single SC dose, returned to baseline or near-baseline by Day 29",Dose-related increases in pulse rate
same,tolerability,"[3]; single SC doses of 0.1, 0.3, 1.0 and 3.0 mg",well tolerated
same,"incidence of GI events (vomiting, abdominal distension, nausea)",[3]; single SC doses of 4.5 and 6.0 mg,increased incidence of GI events
